Measurements reported in patent publication US20240109903A1, “SUBSTITUTED HETEROCYCLES FOR TREATING CANCER” (Northwestern University, priority 2022, published 2024).
Where two headings read alike, the source gives them in different places.

Columns and labels:
IGROV1 = test: NCI 60 five-dose screen IGROV1; format: cell-based; conditions: Homo sapiens, IGROV-1, five-dose
RXF 393 = test: NCI 60 five-dose screen RXF 393; format: cell-based; conditions: Homo sapiens, five-dose
HS 578T = test: NCI 60 five-dose screen HS 578T; format: cell-based; conditions: Homo sapiens, five-dose
OVCAR-5 = test: NCI 60 five-dose screen OVCAR-5; format: cell-based; conditions: Homo sapiens, five-dose
MOLT-4 = test: NCI 60 five-dose screen MOLT-4; format: cell-based; conditions: Homo sapiens, five-dose
MDA-MB-231/ATCC = test: NCI 60 five-dose screen MDA-MB-231/ATCC; format: cell-based; conditions: Homo sapiens, five-dose
DU-145 = test: NCI 60 five-dose screen DU-145; format: cell-based; conditions: Homo sapiens, five-dose
HOP-62 = test: NCI 60 five-dose screen HOP-62; format: cell-based; conditions: Homo sapiens, five-dose
M14 = test: NCI 60 five-dose screen M14; format: cell-based; conditions: Homo sapiens, five-dose
UACC-257 = test: NCI 60 five-dose screen UACC-257; format: cell-based; conditions: Homo sapiens, five-dose
MALME-3M = test: NCI 60 five-dose screen MALME-3M; format: cell-based; conditions: Homo sapiens, MALME-3M, five-dose
HCT-116 = test: NCI 60 five-dose screen HCT-116; format: cell-based; conditions: Homo sapiens, five-dose
SR = test: NCI 60 five-dose screen SR; format: cell-based, human; conditions: five-dose
SF-539 = test: NCI 60 five-dose screen SF-539; format: cell-based; conditions: Homo sapiens, five-dose
NCI-H23 = test: NCI 60 five-dose screen NCI-H23; format: cell-based; conditions: Homo sapiens, five-dose
TK-10 = test: NCI 60 five-dose screen TK-10; format: cell-based; conditions: Homo sapiens, five-dose
UACC-62 = test: NCI 60 five-dose screen UACC-62; format: cell-based; conditions: Homo sapiens, five-dose
KM12 = test: NCI 60 five-dose screen KM12; format: cell-based; conditions: Homo sapiens, five-dose
HCC-2998 = test: NCI 60 five-dose screen HCC-2998; format: cell-based; conditions: Homo sapiens, five-dose
SK-MEL-28 = test: NCI 60 five-dose screen SK-MEL-28; format: cell-based; conditions: Homo sapiens, five-dose
SNB-19 = test: NCI 60 five-dose screen SNB-19; format: cell-based; conditions: Homo sapiens, five-dose
[1] = system: MV-4-11 acute myeloid leukemia cells; test: CellTiter-Glo 2.0 cell viability, MV-4-11; format: cell-based; conditions: Homo sapiens
Method: 2019 October; 94(4): 1813-1823.
Cell viability was assessed using the CellTiter-Glo 2.0 assay from Promega, which yields a signal proportional to the amount of ATP present in a cell population. Compounds were first dispensed into empty 96-well flat-bottom tissue culture-treated plates (Corning) using an Echo550. MV4-1 cells were diluted to a density of 0.1 million cells per ml, pipetted onto the compounds at a density of 1,000 cells per well for U937 and 3,000 cells per well for MV4-11, mixed, and incubated for 3 days at 37° C. with 5% C02. After incubating, 5 μl of cells from each well were added to 5 μl of CellTiter-Glo 2.0 reagent in a384-well white ProxiPlate (PerkinElmer), incubated for 20 minutes at ambient temperature, and luminescence was analyzed on an EnSpire plate reader. Graphing and regression analysis was performed in Graphpad Prism.

U251 = test: NCI 60 five-dose screen U251; format: cell-based; conditions: Homo sapiens, U-251, five-dose
K-562 = test: NCI 60 five-dose screen K-562; format: cell-based; conditions: Homo sapiens, K562, five-dose
[2] = read-out: LC50 (the source's name) (converted)
[3] = read-out: LC50 (the source's name)

FC(F)(F)c1cc2c(Cl)ncnc2n1CCC1CCOCC1 [NUCC-0226674]
GI50 (IGROV1): 1.78 µM | IC50 (IGROV1): 3.16 µM | IC (TGI) (IGROV1): 3.47 µM | CC50 (IGROV1; [2]): 6.76 µM | GI50 (RXF 393): 8.71 µM | IC50 (RXF 393): 24 µM | IC (TGI) (RXF 393): 21.9 µM | CC50 (RXF 393; [2]): 51.3 µM | GI50 (HS 578T): 12 µM | IC50 (HS 578T): 70.8 µM | IC (TGI) (HS 578T): 45.7 µM | CC50 (HS 578T; [3]): ≥ 100 µM | GI50 (OVCAR-5): 24 µM | IC50 (OVCAR-5): 45.7 µM | IC (TGI) (OVCAR-5): 81.3 µM | CC50 (OVCAR-5; [2]): ≥ 100 µM | GI50 (MOLT-4): 2.34 µM | IC50 (MOLT-4): 4.27 µM | IC (TGI) (MOLT-4): 5.5 µM | CC50 (MOLT-4; [3]): ≥ 100 µM | GI50 (MDA-MB-231/ATCC): 3.89 µM | IC50 (MDA-MB-231/ATCC): 8.13 µM | IC (TGI) (MDA-MB-231/ATCC): 14.1 µM | CC50 (MDA-MB-231/ATCC; [2]): 43.7 µM | GI50 (DU-145): 4.37 µM | IC50 (DU-145): 7.24 µM | IC (TGI) (DU-145): 15.1 µM | CC50 (DU-145; [2]): 39.8 µM | GI50 (HOP-62): 17 µM | IC50 (HOP-62): 33.1 µM | IC (TGI) (HOP-62): 35.5 µM | CC50 (HOP-62; [2]): 72.4 µM | GI50 (M14): 3.72 µM | IC50 (M14): 6.31 µM | IC (TGI) (M14): 16.2 µM | CC50 (M14; [2]): 50.1 µM | GI50 (UACC-257): 3.55 µM | IC50 (UACC-257): 9.33 µM | IC (TGI) (UACC-257): 15.5 µM | CC50 (UACC-257; [2]): 52.5 µM | GI50 (MALME-3M): 15.1 µM | IC50 (MALME-3M): 29.5 µM | IC (TGI) (MALME-3M): 29.5 µM | CC50 (MALME-3M; [2]): 56.2 µM | GI50 (HCT-116): 2.34 µM | IC50 (HCT-116): 3.24 µM | IC (TGI) (HCT-116): 6.46 µM | CC50 (HCT-116; [2]): 28.8 µM | GI50 (SR; Homo sapiens): 2.04 µM | IC50 (SR; Homo sapiens): 3.72 µM | CC50 (SR; Homo sapiens, read-out: LC50 (the source's name)): ≥ 100 µM | TGI (SR): 5.27 −log[M] | GI50 (SF-539): 13.8 µM | IC50 (SF-539): 24.5 µM | IC (TGI) (SF-539): 27.5 µM | CC50 (SF-539; [2]): 56.2 µM | GI50 (NCI-H23): 2.57 µM | IC50 (NCI-H23): 4.9 µM | IC (TGI) (NCI-H23): 10 µM | CC50 (NCI-H23; [2]): 34.7 µM | GI50 (TK-10): 17.4 µM | IC50 (TK-10): 36.3 µM | IC (TGI) (TK-10): 36.3 µM | CC50 (TK-10; [2]): 77.6 µM | GI50 (UACC-62): 4.27 µM | IC50 (UACC-62): 8.13 µM | IC (TGI) (UACC-62): 15.8 µM | CC50 (UACC-62; [2]): 40.7 µM | GI50 (KM12): 16.2 µM | IC50 (KM12): 28.2 µM | IC (TGI) (KM12): 33.9 µM | CC50 (KM12; [2]): 70.8 µM | GI50 (HCC-2998): 1.62 µM | IC50 (HCC-2998): 2.95 µM | IC (TGI) (HCC-2998): 3.02 µM | CC50 (HCC-2998; [2]): 5.62 µM | GI50 (SK-MEL-28): 2.63 µM | IC50 (SK-MEL-28): 4.57 µM | IC (TGI) (SK-MEL-28): 6.03 µM | CC50 (SK-MEL-28; [2]): 21.4 µM | GI50 (SNB-19): 5.25 µM | IC50 (SNB-19): 12.3 µM | IC (TGI) (SNB-19): 18.2 µM | CC50 (SNB-19; [2]): 43.7 µM | IC50 ([1]; MV4-11, 72 h, MV-4-11 cells, 3 days, CellTiter-Glo 2.0, read-out: IC50 (uM) [Cell Type: MV-4-11]): 1.29 µM | IC50 ([1]; MV4-11, bound stated in text, read-out: IC50 against MV-4-11 acute myeloid leukemia cells): < 2 µM | GI50 (U251): 2.09 µM | IC50 (U251): 3.24 µM | IC (TGI) (U251): 5.62 µM | CC50 (U251; [2]): 28.2 µM | GI50 (K-562): 2.82 µM | IC50 (K-562): 3.63 µM | IC (TGI) (K-562): 8.71 µM | CC50 (K-562; [3]): ≥ 100 µM
